Data on 6 compounds can be found in ChEMBL document CHEMBL4834491, “Novel Compounds for Treating Malaria” (ACS Med Chem Lett, 2021).

SMILES strings stand for the structures. pEC50: −log10 of the molar value.

The assay concerns Plasmodium falciparum. Kind of assay: Antimalarial activity against Plasmodium falciparum assessed as reduction in parasite growth after 72 hrs by LDH assay. The format is functional, organism-based.
Broadly, the pEC50 is the EC50 on a negative log10 scale, so that one unit is a factor of ten. `CCC1(CC)CC(=O)N([C@H](c2cccnc2)[C@@H]2C(C)[C@H]2C(=O)N[C@H]2CC(C)(C)Oc3ccccc32)C(=N)N1` (stereo partly specified): the pEC50 is 9.15.
With `CC[C@]1(C)CC(=O)N([C@H](c2cncc(F)c2)[C@@H]2C[C@H]2C(=O)N[C@H]2C[C@H](C(F)(F)F)Oc3ccccc32)C(=N)N1`, the pEC50 was 9.52.
The figure for `CC[C@@]1(C)CC(=O)N([C@H](c2cncc(F)c2)[C@@H]2C[C@H]2C(=O)N[C@H]2CC(C)(C)Oc3ccccc32)C(=N)N1` is 9.22.
Regarding `CC[C@]1(C)CC(=O)N([C@H](c2cncc(F)c2)[C@@H]2C[C@H]2C(=O)N[C@H]2CC(C)(C)Oc3ccc(F)cc32)C(=N)N1`, the negative logarithm of the EC50 (pEC50) was 9.52.
The figure for `CCC1(CC)CC(=O)N([C@H](CCCC(C)OC)[C@@H]2C[C@H]2C(=O)N[C@H]2CC(C)(C)Oc3ccccc32)C(=N)N1` (stereo partly specified) is 9.15; for `CC1(C)CC(=O)N([C@H](c2cncc(Cl)c2)[C@@H]2C[C@H]2C(=O)N[C@H]2C[C@H](C(F)(F)F)Oc3ccccc32)C(=N)N1` it is 9.30.
